Results on six cell lines are retold here after the supplement of paper PMC10307832.

What all share (assay): relative viability (nuclei count vs DMSO), 5 days (fraction); higher = more cells survive
Compound in the assay “Idelalisib + Lapatinib”: CC[C@H](Nc1ncnc2[nH]cnc12)c1nc2cccc(F)c2c(=O)n1-c1ccccc1 [Idelalisib] + CS(=O)(=O)CCNCc1ccc(-c2ccc3ncnc(Nc4ccc(OCc5cccc(F)c5)c(Cl)c4)c3c2)o1 [Lapatinib] (partner 2 µM)
An outline of the steps:
(§1)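 After 5 days of treatment, lung cancer cells in 1536-well plates were fixed and stained in a single step (final 0.05% Triton X-100, 1% formaldehyde, 1 ug/ml Hoechst) and their nuclei counted on 4× images. Treatment had been applied by pin tool the day after seeding as one drug alone or as a fixed anchor-drug dose with five library-drug doses (not always all listed) in √10 steps. Relative viability is the nuclei count of treated wells divided by that of vehicle wells, and values are medians of duplicate plates.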

Compound in the assay “Idelalisib + Crizotinib”: CC[C@H](Nc1ncnc2[nH]cnc12)c1nc2cccc(F)c2c(=O)n1-c1ccccc1 [Idelalisib] + C[C@@H](Oc1cc(-c2cnn(C3CCNCC3)c2)cnc1N)c1c(Cl)ccc(F)c1Cl [Crizotinib] (partner 1 µM)
An outline of the steps: as §1

Compound in the assay “Pemetrexed + Foretinib”: Nc1nc2[nH]cc(CCc3ccc(C(=O)N[C@@H](CCC(=O)O)C(=O)O)cc3)c2c(=O)[nH]1 [Pemetrexed] + COc1cc2c(Oc3ccc(NC(=O)C4(C(=O)Nc5ccc(F)cc5)CC4)cc3F)ccnc2cc1OCCCN1CCOCC1 [Foretinib] (partner 0.25 µM)
An outline of the steps: as §1

Compound in the assay “Pemetrexed + Decitabine”: Nc1nc2[nH]cc(CCc3ccc(C(=O)N[C@@H](CCC(=O)O)C(=O)O)cc3)c2c(=O)[nH]1 [Pemetrexed] + Nc1ncn([C@H]2C[C@H](O)[C@@H](CO)O2)c(=O)n1 [Decitabine] (partner 2 µM)
The method in brief:
as §1

In the case of NCI-H661, the relative viability with Idelalisib + Lapatinib (first compound 0.04 µM) came to 0.44; in the assay with Idelalisib + Lapatinib (first compound 0.1265 µM), 0.433; in the assay with Idelalisib + Lapatinib (first compound 0.4 µM), 0.39; in the assay with Idelalisib + Lapatinib (first compound 1.265 µM), 0.367; with Idelalisib + Lapatinib (first compound 4 µM), 0.391; with Idelalisib + Crizotinib (first compound 0.04 µM), 1.04. Further, the relative viability came out at 1.08 with Idelalisib + Crizotinib (first compound 0.4 µM); 1.14 in the assay with Idelalisib + Crizotinib (first compound 1.265 µM); 0.943 with Idelalisib + Crizotinib (first compound 4 µM); 1.03 with Pemetrexed + Foretinib (first compound 0.002 µM); 0.987 in the assay with Pemetrexed + Foretinib (first compound 0.006325 µM); 1.01 with Pemetrexed + Foretinib (first compound 0.02 µM). Further, the relative viability came out at 0.985 in the assay with Pemetrexed + Foretinib (first compound 0.06325 µM); 0.974 with Pemetrexed + Foretinib (first compound 0.2 µM); 0.586 with Pemetrexed + Decitabine (first compound 0.002 µM); 0.513 in the assay with Pemetrexed + Decitabine (first compound 0.006325 µM); 0.646 with Pemetrexed + Decitabine (first compound 0.02 µM); 0.608 with Pemetrexed + Decitabine (first compound 0.06325 µM). Besides, in the assay with Pemetrexed + Decitabine (first compound 0.2 µM), the relative viability turned out to be 0.559.

Take CAL-12T: the relative viability with Idelalisib + Lapatinib (first compound 0.04 µM) is 0.672; in the assay with Idelalisib + Lapatinib (first compound 0.1265 µM), 0.7; with Idelalisib + Lapatinib (first compound 0.4 µM), 0.616; in the assay with Idelalisib + Lapatinib (first compound 1.265 µM), 0.471; in the assay with Idelalisib + Lapatinib (first compound 4 µM) it was 0.501; with Idelalisib + Crizotinib (first compound 0.04 µM), 0.769. Besides, the relative viability in the assay with Idelalisib + Crizotinib (first compound 0.1265 µM) was found to be 0.636; with Idelalisib + Crizotinib (first compound 0.4 µM), 0.562; in the assay with Idelalisib + Crizotinib (first compound 1.265 µM) it was 0.635; with Idelalisib + Crizotinib (first compound 4 µM), 0.518; with Pemetrexed + Foretinib (first compound 0.002 µM), 1.04; in the assay with Pemetrexed + Foretinib (first compound 0.006325 µM), 1.07. The values for the relative viability in the assay with Pemetrexed + Foretinib (first compound 0.02 µM), in the assay with Pemetrexed + Foretinib (first compound 0.06325 µM) and with Pemetrexed + Foretinib (first compound 0.2 µM) were 1.24, 1.17 and 1.04, respectively.

Turning to HARA, the relative viability with Idelalisib + Lapatinib (first compound 0.04 µM) turned out to be 0.891; with Idelalisib + Lapatinib (first compound 0.1265 µM), 0.982; with Idelalisib + Lapatinib (first compound 0.4 µM), 0.651; in the assay with Idelalisib + Lapatinib (first compound 1.265 µM) it was 0.844; in the assay with Idelalisib + Lapatinib (first compound 4 µM), 0.656; in the assay with Idelalisib + Crizotinib (first compound 0.04 µM), 1.2. Further, the relative viability in the assay with Idelalisib + Crizotinib (first compound 0.1265 µM) was found to be 0.988; with Idelalisib + Crizotinib (first compound 0.4 µM), 0.894; in the assay with Idelalisib + Crizotinib (first compound 1.265 µM), 0.988; in the assay with Idelalisib + Crizotinib (first compound 4 µM), 0.991; in the assay with Pemetrexed + Foretinib (first compound 0.002 µM) it was 0.856; with Pemetrexed + Foretinib (first compound 0.006325 µM), 0.87. The relative viability with Pemetrexed + Foretinib (first compound 0.02 µM) is 1; with Pemetrexed + Foretinib (first compound 0.06325 µM) it was 0.846; with Pemetrexed + Foretinib (first compound 0.2 µM), 0.393; with Pemetrexed + Decitabine (first compound 0.002 µM), 0.486; with Pemetrexed + Decitabine (first compound 0.006325 µM) it was 0.457; in the assay with Pemetrexed + Decitabine (first compound 0.02 µM) it was 0.659. Further, the relative viability was found to be 0.437 with Pemetrexed + Decitabine (first compound 0.06325 µM) and 0.234 in the assay with Pemetrexed + Decitabine (first compound 0.2 µM).

Take NCI-H596: the relative viability with Idelalisib + Lapatinib (first compound 0.04 µM) was found to be 1.04; with Idelalisib + Lapatinib (first compound 0.1265 µM), 1.13; with Idelalisib + Lapatinib (first compound 0.4 µM), 0.895; with Idelalisib + Lapatinib (first compound 1.265 µM), 1.16; with Idelalisib + Lapatinib (first compound 4 µM), 0.934; in the assay with Idelalisib + Crizotinib (first compound 0.04 µM), 1.02. Besides, the relative viability with Idelalisib + Crizotinib (first compound 0.1265 µM) is 0.902; in the assay with Idelalisib + Crizotinib (first compound 0.4 µM), 0.886; with Idelalisib + Crizotinib (first compound 1.265 µM), 0.923; with Idelalisib + Crizotinib (first compound 4 µM) it was 0.948; in the assay with Pemetrexed + Foretinib (first compound 0.002 µM) it was 0.765; in the assay with Pemetrexed + Foretinib (first compound 0.006325 µM), 0.83. In addition, the relative viability was 0.938 in the assay with Pemetrexed + Foretinib (first compound 0.02 µM); 0.786 with Pemetrexed + Foretinib (first compound 0.06325 µM); 0.581 with Pemetrexed + Foretinib (first compound 0.2 µM); 0.996 with Pemetrexed + Decitabine (first compound 0.002 µM); 1.03 in the assay with Pemetrexed + Decitabine (first compound 0.006325 µM); 0.972 with Pemetrexed + Decitabine (first compound 0.02 µM). Besides, the relative viability with Pemetrexed + Decitabine (first compound 0.06325 µM) stood at 0.839; in the assay with Pemetrexed + Decitabine (first compound 0.2 µM), 0.553.

Take LU99A: the relative viability in the assay with Idelalisib + Lapatinib (first compound 0.04 µM) was 0.923; with Idelalisib + Lapatinib (first compound 0.1265 µM) it was 0.912; with Idelalisib + Lapatinib (first compound 0.4 µM) it was 0.862; with Idelalisib + Lapatinib (first compound 1.265 µM), 1.14; with Idelalisib + Lapatinib (first compound 4 µM), 1.04; with Idelalisib + Crizotinib (first compound 0.04 µM), 0.625. The relative viability came to 0.638 in the assay with Idelalisib + Crizotinib (first compound 0.1265 µM); 0.578 with Idelalisib + Crizotinib (first compound 0.4 µM); 0.614 with Idelalisib + Crizotinib (first compound 1.265 µM); 0.643 with Idelalisib + Crizotinib (first compound 4 µM); 0.776 in the assay with Pemetrexed + Foretinib (first compound 0.002 µM); 0.775 in the assay with Pemetrexed + Foretinib (first compound 0.006325 µM). Further, the relative viability was determined as 0.811 with Pemetrexed + Foretinib (first compound 0.02 µM); 0.793 with Pemetrexed + Foretinib (first compound 0.06325 µM); 0.768 with Pemetrexed + Foretinib (first compound 0.2 µM); 0.802 with Pemetrexed + Decitabine (first compound 0.002 µM); 0.753 with Pemetrexed + Decitabine (first compound 0.006325 µM); 0.947 in the assay with Pemetrexed + Decitabine (first compound 0.02 µM). Further, the figures for the relative viability with Pemetrexed + Decitabine (first compound 0.06325 µM) and with Pemetrexed + Decitabine (first compound 0.2 µM) were 0.865 and 0.887, respectively.

For the cell line LC-2-ad, the relative viability in the assay with Idelalisib + Lapatinib (first compound 0.04 µM) came to 1.04; with Idelalisib + Lapatinib (first compound 0.1265 µM), 0.963; in the assay with Idelalisib + Lapatinib (first compound 0.4 µM) it was 0.949; with Idelalisib + Lapatinib (first compound 1.265 µM), 1.05; with Idelalisib + Lapatinib (first compound 4 µM) it was 0.868; with Idelalisib + Crizotinib (first compound 0.04 µM), 0.427. The relative viability with Idelalisib + Crizotinib (first compound 0.1265 µM) was 0.415; with Idelalisib + Crizotinib (first compound 0.4 µM), 0.447; in the assay with Idelalisib + Crizotinib (first compound 1.265 µM) it was 0.439; with Idelalisib + Crizotinib (first compound 4 µM) it was 0.508; with Pemetrexed + Foretinib (first compound 0.002 µM), 0.818; with Pemetrexed + Foretinib (first compound 0.006325 µM), 0.946. For the same cell line, the relative viability with Pemetrexed + Foretinib (first compound 0.02 µM) was determined as 0.526; with Pemetrexed + Foretinib (first compound 0.06325 µM), 0.296; with Pemetrexed + Foretinib (first compound 0.2 µM), 0.284; in the assay with Pemetrexed + Decitabine (first compound 0.002 µM), 0.807; with Pemetrexed + Decitabine (first compound 0.006325 µM), 0.771; in the assay with Pemetrexed + Decitabine (first compound 0.02 µM) it was 0.779. Also, the relative viability was 0.755 with Pemetrexed + Decitabine (first compound 0.06325 µM) and 0.316 in the assay with Pemetrexed + Decitabine (first compound 0.2 µM).
